Measured values: US8371378B2, “Method for pre-treatment of subterranean sites adjacent to water injection wells” (E. I. du Pont de Nemours and Company, priority 2010, dated 2013)

Key:
[1] = Titration of amine coated core sand in brine #2 with 1N HCl, amine in solution by GC (Example 2); type: physicochemical; settings: brine #2, 1N HCl
Procedure: Helium was used as the carrier gas.
38 milligrams (mg) of N N-Dimethyl-1-Dodecanamine (hereafter referred to as “the amine”) was added to 10.210 gr of Pentane. This solution was added to 10.1845 gr of specific sand layers (Oa and Ob) obtained from the Schrader Bluff formation of the Milne Point Unit of the Alaskan North slope. The oil content of the sand was first removed using a mixture of methanol and toluene (50/50, volume/volume) as solvent washes. The solvent mixture was subsequently evaporated off the core sand to produce clean, dry, flowable core sand. This sand was mixed with the amine and pentane solution to produce a slurry. This slurry was thoroughly mixed and the pentane was evaporated off leaving the amine on the sand (hereafter referred to as sand/amine mixture). 100 ml of brine #2 (Table 3) was added to the sand/amine mixture to create the sand/amine/brine mixture. […] The fact that the amine was not detected underlined its strong binding to the sand particles. […] The data underlines the remarkable efficiency of an acid at ionizing and removing the amine from the sand.

[2] = Titration of sand/amine/brine mixture with 10% nitric acid, amine in solution by GC (Example 4); settings: core sand, brine #2, 10 wt % nitric acid
Procedure: (§1) Concentration of amines, in media and water, were analyzed by gas chromatography (GC). An Agilent Model 5890 (Agilent, Wilmington, Del.), GC equipped with a […] and a split/splitless injector, a DB-FFAP column (30 meter length×0.32 millimeter (mm) depth×0.25 micrometer particle size). […] The system was calibrated using a sample of N,N-Dimethyl-1-Dodecaneamine (Aldrich). Helium was used as the carrier gas. A temperature gradient of 50 degrees Celsius (° C.) to 250° C. at 30° C. increase per minute (min) was used. Retention times (in minutes, min) for various chemicals of interest included: N,N-Dimethyl-1-Dodecaneamine (8.08 min); N,N-Dimethyl-1-Tetradecaneamine (8.85 min); N,N-Dimethyl-1-Hexadecane-amine (9.90 min); N,N-Dimethyl-1-Octadecaneamine (10.26 min) and N-Methyl,N-Benzyl)-1-Tetradecaneamine (11.40 min).
The procedure outlined in Example 2 was used to produce the sand/amine mixture except that 519 mg of the amine, 10 gr of Pentane. and 60.062 gr of sand from the Oa and Ob layers were used. 29.065 gr of this sand/amine mixture was added to 100 ml of brine #2 (Table 3) to create the sand/amine/brine mixture. […] 0.1 ml of 10 weight percent (wt %) nitric acid in water was added to this solution, and the pH and the amine concentration were measured again.

[3] = Titration of sand/amine/brine mixture with 10% acetic acid, amine in solution by GC (Example 5); settings: core sand, brine #2, 10 wt % acetic acid
Procedure: as §1
The same procedure outlined in Example 4 was repeated here to produce the sand/amine mixture. 30.85 grams (gr) of the sand/amine mixture was added to 100 ml of brine #2 (Table 3) to create the sand/amine/brine mixture.

With CCCCCCCCCCCCN(C)C [N-N-dimethyl-1-dodeanamine, N N-Dimethyl-1-Dodecanamine] the “pH of complete ionization and solubilization of the amine in the water” value [1] was less than 6.0 pH, the “pH of complete ionization and solubilization in the water of the amine” value [2] was less than 6.7 pH and the “pH of complete ionization and solubilization in the water of the amine” value [3] was less than 6.7 pH.
